What all share (assay type): cell-based
The nature of series [1]: Cytotoxicity in HepG2 cells, Resazurin assay. As to conditions: human, 4 days incubation, Resazurin viability. The procedure:
Cytotoxicity of the compounds was also tested using HepG2 cells, incubated for 4 days in the presence of compounds. The viability of the cells was assessed using a Resazurin assay.
In general terms: Alamar Blue is a resazurin reagent that responds to reducing activity.

For series [2], the system named is HBV. Briefly: Anti-HBV activity in HepG2.2.15 stable transfected cell line, HBV DNA from secreted virions by realtime PCR. As to conditions: Hepatitis B virus, read-out: HBV - HepG2.15.
Series [3] relates to HBV. In words: Anti-HBV activity in HepG2.117 inducible HBV producing cell line (Tet-off), intracellular HBV DNA by realtime PCR. As to conditions: Hepatitis B virus, read-out: HepG2 117 EC50.
[4] abbreviates: 144 h, HepG2.2.15 cells, 6 days of treatment, HBV DNA from secreted virions.
The mark [5] stands for this setting: 72 h, HepG2.117 cells, 3 days of treatment, intracellular HBV DNA.

`O=S(=O)(NC1CCCCC1)c1ccc2[nH]nc(Nc3ccc(F)cc3)c2c1` [Compound 3] had a CC50 at 4 days in series [1] of over 25 µM. Also, the results for the EC50 in series [2] (setting [4]) and in series [3] (setting [5]) were 1 µM and 4.6 µM, respectively.
`O=S(=O)(NC1CCCCC1)c1ccc2onc(Nc3ccc(F)cc3)c2c1` [Compound 4]: in series [1], the CC50 at 4 days is over 25 µM. Moreover, the EC50 came out at 0.74 µM in series [2] (HepG2.2.15, 144 h) and 1.2 µM in series [3] (HepG2.117, 72 h).
In series [1], `O=S(=O)(NC1CCCC1)c1ccc2[nH]nc(Nc3ccc(F)cc3)c2c1` [Compound 5] had a CC50 at 4 days of over 25 µM. For the same molecule, the EC50 in series [2] (setting [4]) worked out at 1 µM; in series [3] (setting [5]), 1.8 µM.
With `Cn1nc(Nc2ccc(F)cc2)c2cc(S(=O)(=O)NC3CCCC3)ccc21` [Compound 6], the CC50 at 4 days in series [1] was over 25 µM. In addition, the EC50 was determined as 0.49 µM in series [2] (setting [4]) and 0.82 µM in series [3] (setting [5]).
The like results for `CC(C)n1nc(Nc2ccc(F)cc2)c2cc(S(=O)(=O)NC3CCCC3)ccc21` [Compound 7] were, in that order, over 25 µM, over 50 µM and over 25 µM.
In turn, `O=S(=O)(NC1CCCC1)c1ccc2c(c1)c(Nc1ccc(F)cc1)nn2C1CC1` [Compound 8] showed a CC50 at 4 days in series [1] of over 25 µM. For the same molecule, the EC50 is 0.21 µM in series [2] (setting [4]) and 0.62 µM in series [3] (setting [5]).
The like results for `CC(=O)n1nc(Nc2ccc(F)cc2)c2cc(S(=O)(=O)NC3CCCC3)ccc21` [Compound 9] were, in that order, over 25 µM, over 50 µM and 18.4 µM.
The corresponding values for `COC(=O)n1nc(Nc2ccc(F)cc2)c2cc(S(=O)(=O)NC3CCCC3)ccc21` [Compound 10] are over 25 µM, 46.5 µM and over 25 µM.
In series [1], `O=S(=O)(N[C@H]1CCOC1)c1ccc2[nH]nc(Nc3ccc(F)c(F)c3)c2c1` [Compound 11] displayed a CC50 at 4 days of over 25 µM. In addition, the EC50 in series [2] (setting [4]) is 3.3 µM; in series [3] (setting [5]) it was 12.4 µM.
The corresponding values for `Cc1cc(Nc2n[nH]c3ccc(S(=O)(=O)N[C@H]4CCOC4)cc23)ccc1F` [Compound 12] are over 25 µM, 5.2 µM and over 25 µM.
The corresponding values for `CC(C)NS(=O)(=O)c1ccc2[nH]nc(Nc3ccc(F)c(F)c3)c2c1` [Compound 13] are over 25 µM, 8.9 µM and over 25 µM.
The like results for `Cc1cc(Nc2nn(C)c3ccc(S(=O)(=O)N[C@H]4CCOC4)cc23)ccc1F` [Compound 14] were, in that order, over 25 µM, 1.1 µM and 8.5 µM.
Molecule `CC(C)NS(=O)(=O)c1ccc2c(c1)c(Nc1ccc(F)c(C(F)F)c1)nn2C` [Compound 15] displayed a CC50 at 4 days in series [1] of over 25 µM. In addition, the EC50 in series [2] (setting [4]) amounted to 0.44 µM; in series [3] (setting [5]), 2.8 µM.
The corresponding values for `Cn1nc(Nc2ccc(F)c(C(F)F)c2)c2cc(S(=O)(=O)N[C@H]3CCOC3)ccc21` [Compound 16] are over 25 µM, 1.3 µM and 4.5 µM.
Turning to `CC(C)NS(=O)(=O)c1ccc2cnc(Nc3ccc(F)c(C(F)F)c3)n2c1` [Compound 17], the CC50 at 4 days in series [1] is over 25 µM. Moreover, the EC50 in series [2] (setting [4]) came to 0.56 µM; in series [3] (setting [5]), 14.2 µM.
The corresponding values for `Cc1cc(Nc2ncc3ccc(S(=O)(=O)N[C@H]4CCOC4)cn23)ccc1F` [Compound 18] are over 25 µM, 1.7 µM and over 25 µM.
`Cc1cc(Nc2nnc3ccc(S(=O)(=O)NC(C)C)cn23)ccc1F` [Compound 19] returned a CC50 at 4 days in series [1] of over 25 µM. Also, the EC50 turned out to be 1.2 µM in series [2] (setting [4]) and 3.4 µM in series [3] (setting [5]).

In general, CC50 refers to the concentration at which the toxic effect on the cells reaches its halfway point. Read a high CC50 as better tolerance by the cells.

The values are drawn from patent US9156839B2, “Fused bicyclic sulfamoyl derivatives and the use thereof as medicaments for the treatment of hepatitis B” (JANSSEN SCIENCES IRELAND UC, priority 2012, dated 2015).
